Data: ChEMBL document CHEMBL1154435, “Synthesis and anti-inflammatory activity evaluation of unsymmetrical selenides” (Eur J Med Chem, 2008)

What was measured:
[1] = tested on: Mus musculus; experiment: Safety ratio for toxicity to antiinflammatory activity in po dosed mouse; type: functional
[2] = tested on: Rattus norvegicus; experiment: Antiinflammatory activity against cotton pellets-induced inflammation in Wistar rat assessed as wet weight of granuloma at 10 mg/kg, po after 7 days; type: functional
[3] = tested on: Rattus norvegicus; experiment: Antiinflammatory activity against cotton pellets-induced inflammation in Wistar rat assessed as final weight of granuloma at 10 mg/kg, po after 7 days; type: functional
[4] = tested on: Rattus norvegicus; experiment: Antiinflammatory activity against cotton pellets-induced inflammation in Wistar rat assessed as dry weight of granuloma at 10 mg/kg, po after 7 days; type: functional
[5] = Acute toxicity in po dosed mouse assessed as death within 7 days; type: organism-based; conditions: in vivo
[6] = tested on: Rattus norvegicus; experiment: Antiinflammatory activity against cotton pellets-induced inflammation in Wistar rat assessed as final weight of granuloma at 5 mg/kg, po after 7 days; type: functional
[7] = tested on: Rattus norvegicus; experiment: Antiinflammatory activity against cotton pellets-induced inflammation in Wistar rat assessed as dry weight of granuloma at 5 mg/kg, po after 7 days; type: functional
[8] = tested on: Rattus norvegicus; experiment: Antiinflammatory activity against cotton pellets-induced inflammation in Wistar rat assessed as wet weight of granuloma at 5 mg/kg, po after 7 days; type: functional
[9] = tested on: Mus musculus; experiment: Acute toxicity in mouse assessed as occurrence of ataxia and respiratory problems at 600 mg/kg, po within 7 days; type: organism-based; set-up: dose 600 mg/kg, route oral; conditions: in vivo, 168 h

Row | SMILES | Ratio [1] | Activity [2] [g] | Activity [3] [mg] | Activity [4] [g] | LD50 at 168 h [5] [mg/kg] | Activity [6] [mg] | Activity [7] [g] | Activity [8] [g] | Activity [9]
1 | O=C(O)C[Se]c1ccccc1C(=O)O | >=60 | 0.378 | 33.8 | 0.085 | > 600 |  |  |  | 
2 | C#CC[Se]c1ccc(C(=O)NC)cc1 | >=60 | 0.447 | 41.3 | 0.096 | > 600 |  |  |  | 
3 | COc1ccc2c(c1)c(CC(=O)O)c(C)n2C(=O)c1ccc(Cl)cc1 [INDOMETHACIN] | 3.3 |  |  |  | 33 | 21.8 | 0.072 | 0.307 | 
4 | CC(C)=C[Se]c1ccccc1C(=O)O | >=60 | 0.406 | 32.8 | 0.084 | > 600 |  |  |  | 
5 | CNC(=O)c1ccc([Se]C=C(C)C)cc1 | >=60 | 0.369 | 33.2 | 0.087 | 600 |  |  |  | Toxic
6 | CNC(=O)c1ccc([Se]Cc2ccccc2)cc1 | >=60 | 0.414 | 35.7 | 0.089 | > 600 |  |  |  | 
7 | C#CC[Se]c1ccccc1C(=O)O | >=60 | 0.353 | 30.9 | 0.081 | 600 |  |  |  | Toxic
